Assay results from patent US6555559B1, “5,6,7-trinor-4,8-inter-m-phenylene PGI2, derivative and drugs containing the same” (Toray Industries, Inc., priority 1998, dated 2003).
Converted amounts (≈) assume the structure as drawn. Blank lines part the entries; values can stand above or below the compound they belong to.

How the values were obtained:
Assay type in all cases: cell-based
[1] = tested on: Helicobacter pylori (three strains of ATCC43504, ATCC43526, and TK1402); test: Antibacterial activity on Helicobacter pylori, disk method, lethal concentration (LC); conditions: culture 4 days
Protocol: A blank disk (produced by Beckton Deckinson Co.,) was placed in a brain heart infusion agar medium containing 7% horse blood and coated with Helicobacter pylori (three strains of ATCC43504, ATCC43526, and TK1402). The disk was soaked with 10 μl of a solution of a test compound in dimethylsulfoxide, and then cultured under microaerophilic conditions including 5% of O2, 10% of CO2 and 85% of N2 at 37° C. for 4 days. After the completion of culture, the diameter of a growth inhibition circle formed around the disk was measured, and the lethal concentration (LC) of each test compound was computed according to the computation expression of Hultmark et al. (The EMBO Journal, 2, 571-576, 1983).

[2] = tested on: human platelet aggregation; test: Effect on human platelet aggregation (ADP-induced, in the presence of SQ-29548); conditions: human PRP, SQ-29548 added, aggregation induced with ADP, compound 10 μM; control 38 ± 4.9
Protocol: The blood collected from healthy persons was centrifuged to separate platelet-rich plasma (PRP) and platelet-poor plasma (PPP). […] Experiment was carried out for 3 examples per group.

[3] = tested on: Helicobacter pylori (2 ATCC strains and 25 clinical isolates); test: Antibacterial activity on Helicobacter pylori, agar dilution MIC, 27 strains; conditions: for Growth inhibition rate: share of 27 strains inhibited
Protocol: As test strains, 2 commercial ATCC strains ([…] and TACC43526 strain) of Helicobacter pylori, and 25 clinical isolates were used. Each of the strains was inoculated into a brain heart infusion agar medium containing 7% horse blood, and cultured under microaerophilic conditions including 5% of O2, 10% of CO2 and 85% of N2 at 37° C. After culture for 3 to 4 days, colonies of each strain formed on the medium were collected, and suspended in a brain heart infusion medium containing 10% of fetal calf serum so that turbidity was McFarland No. 1 (the number of bacteria was about 3×10^8/ml) to form a test bacterial suspension. On the other hand, a test compound (compound 4) was dissolved in dimethylsulfoxide, and a diluent in a double dilution series was prepared with dimethylsulfoxide so that the final concentration of the solvent was 0.5%, to form a test drug solution. 100 μl of the test drug solution was mixed with 20 ml of a brain heart infusion agar medium containing 7% horse blood and about 45° C., and the resultant mixture was solidified by allowing to cool to form a test medium. Next, about 5 μl of test bacterial suspension was inoculated into the medium by using a micro planter, and then cultured under microaerophilic conditions including 5% of O2, 10% of CO2 and 85% of N2 at 37° C. for 4 days. […] The minimum concentration at which growth of 50% of the total 27 stains used in the test was inhibited was MIC50, and the minimum concentration at which growth of 90% the strains used was inhibited was MIC90.

SMILES: COC(=O)CCc1cccc2c1OC1CC(OC(C)=O)C(C=C(F)C(=O)C(C)(C)Oc3ccccc3)C21 (stereo not drawn) [Example 1, 14-Fluoro-16-methyl-15-oxo-16-phenoxy-2,5,6,7,18,19,20-heptanor-4,8-inter-m-phenylene PGI2 Methyl Ester, 11-Acetate]
Antibacterial activity (lethal concentration LC) ([1]; Helicobacter pylori strain ATCC43504): 141 ± 27 µM | Antibacterial activity (lethal concentration LC) ([1]; Helicobacter pylori strain ATCC43526): 169 ± 6 µM | Antibacterial activity (lethal concentration LC) ([1]; Helicobacter pylori strain TK1402): 151 ± 4 µM

SMILES: CC(C)(Oc1ccccc1)C(O)C(F)=CC1C(O)CC2Oc3c(CCC(=O)O)cccc3C21 (stereo not drawn) [Example 3, 14-Fluoro-16-methyl-16-phenoxy-2,5,6,7,18,19,20-heptanor-4,8-inter-m-phenylene PGI2]
Platelet aggregation [2]: 54 ± 1.7%

MIC50 ([3]; minimum concentration inhibiting growth of 50% of the total 27 strains): 12.5 µM (≈ 5.71 µg/mL) | MIC90 ([3]; minimum concentration inhibiting growth of 90% of the total 27 strains): 50 µM (≈ 22.8 µg/mL)
SMILES: CC(C)(Oc1ccccc1)C(O)C(F)=CC1C(O)CC2Oc3c(CCC(=O)O)cccc3C21 (stereo not drawn) [Example 4, 14-Fluoro-16-methyl-16-phenoxy-15-epi-2,5,6,7,18,19,20-heptanor-4,8-inter-m-phenylene PGI2]
Number of strains inhibited/total strains ([3]; concentration 12.5 μM): 11/27 | Growth inhibition rate ([3]; concentration 12.5 μM): 40.7% | Number of strains inhibited/total strains ([3]; concentration 25 μM): 20/27 | Growth inhibition rate ([3]; concentration 25 μM): 74.1% | Number of strains inhibited/total strains ([3]; concentration 50 μM): 26/27 | Growth inhibition rate ([3]; concentration 50 μM): 96.3%
